Drawing on ChEMBL document CHEMBL1159024, “Inhibitory effect of tannic acid on gastric H+,K(+)-ATPase” (J Nat Prod, 1992), this text covers Activity and IC50 for two molecules.

SMILES strings stand for the structures. Active and inactive are the calls of the source. No cut-off for these calls is given here.

The species entered for experiment [1] is Sus scrofa. Kind of experiment: Inhibition of H(+)/K(+) ATPase from pig gastric mucosa by non competitive-double reciprocal plot in presence of K+. The class given is tissue-based.
Experiment [2] can be described thus: Inhibition of H(+)/K(+) ATPase from pig gastric mucosa. In kind it is tissue-based, Sus scrofa.
Experiment [3] is filed under the species Sus scrofa. In words: Inhibition of H(+)/K(+) ATPase from pig gastric mucosa by competitive-double reciprocal plot in presence of ATP. The class given is tissue-based.
Experiment [4] is described as follows: Inhibition of K+ dependent pNPPase from pig gastric mucosa. In kind it is tissue-based, Sus scrofa.

The term IC50 denotes the concentration that inhibits the measured activity by half. Read a low IC50 as inhibition by little substance. Take `O=C(OC[C@H]1O[C@@H](OC(=O)c2cc(O)c(O)c(OC(=O)c3cc(O)c(O)c(O)c3)c2)[C@H](OC(=O)c2cc(O)c(O)c(OC(=O)c3cc(O)c(O)c(O)c3)c2)[C@@H](OC(=O)c2cc(O)c(O)c(OC(=O)c3cc(O)c(O)c(O)c3)c2)[C@@H]1OC(=O)c1cc(O)c(O)c(OC(=O)c2cc(O)c(O)c(O)c2)c1)c1cc(O)c(O)c(OC(=O)c2cc(O)c(O)c(O)c2)c1` [TANNIC ACID]: the result in experiment [1] and in experiment [3] was Active. In addition, the 50% inhibitory concentration (IC50) in experiment [2] is 29 nM; in experiment [4] it was 410 nM.

`O=c1oc2c(O)c(O)cc3c(=O)oc4c(O)c(O)cc1c4c23` [ELLAGIC ACID]: the result in experiment [1] and in experiment [3] was Active. In experiment [2], the IC50 came to 210 nM.
